# From article PMC7052517 (iScience, 2020)
# Like-named read-outs stand apart in the source and are kept apart here.
# How the values were obtained:
# α-Synuclein [1] = molecular target: T1, α-Synuclein (Homo sapiens, UniProt P37840); assay: isothermal titration calorimetry; assay type: binding
# α-Synuclein [2] = molecular target: T1, α-Synuclein; assay: isothermal titration calorimetry; assay type: binding; remark: listed apart in the source
Kd (α-Synuclein [1]) [µM],Kd (α-Synuclein [2]) [µM],SMILES
221,–,"CC/C=C\C/C=C\C/C=C\CCCCCCCC(=O)O [ALA, α-linolenic acid]"
179,–,"CCCCCCCC/C=C\CCCCCCCC(=O)O [OA, oleic acid]"
–,0.5,"CC1=C(/C=C/C(C)=C/C=C/C(C)=C/C(=O)O)C(C)(C)CCC1 [RA, retinoic acid]"
